Experimental data published in patent US10738061B2, “Inhibitors of RAD52 recombination protein and methods using same” (Drexel University, priority 2015, dated 2020).

Legend:
[1] = target: T1, RAD52 (Homo sapiens, UniProt P43351); experiment: D-loop formation (DNA pairing) by RAD52; format: biochemical; conditions: three independent repeats, read-out: Inhibition of DNA pairing (D-loop formation), IC50
T1 construct: made in house
T1 sequence (P43351 1-418): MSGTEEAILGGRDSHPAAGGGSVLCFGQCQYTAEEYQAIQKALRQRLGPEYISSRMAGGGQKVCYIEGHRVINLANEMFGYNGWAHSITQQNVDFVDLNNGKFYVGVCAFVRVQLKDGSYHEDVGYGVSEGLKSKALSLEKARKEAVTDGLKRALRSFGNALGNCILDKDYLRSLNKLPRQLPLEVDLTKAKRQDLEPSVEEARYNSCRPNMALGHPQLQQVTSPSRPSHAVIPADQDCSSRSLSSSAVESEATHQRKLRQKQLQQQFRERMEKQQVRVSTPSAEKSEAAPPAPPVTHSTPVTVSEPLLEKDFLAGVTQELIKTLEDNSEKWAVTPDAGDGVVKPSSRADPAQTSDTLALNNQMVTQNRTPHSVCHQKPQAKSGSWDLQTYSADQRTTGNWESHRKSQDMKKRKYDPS
Description: Cisplatin was purchased from Sigma-Aldrich. Human RAD52 and RAD51 were purified as described (Bugreev et al., 2005, Mol. Cell. Biol. 33, 387-395). The oligonucleotides (Table 2) were purchased from IDT, Inc and further purified by electrophoresis (Rossi et al., 2010, Methods 51, 336-346). Supercoiled pUC19 plasmid DNA was purified using Qiagen kits. All DNA concentrations are expressed as moles of nucleotide.
To form RAD52 nucleoprotein complexes, RAD52 (0.45 μM) was incubated with a ^32P-labeled ssDNA (oligo 90/SEQ ID NO: 4) (3 μM, nt) in buffer containing 25 mM Tris-Acetate, pH 7.5, 100 μg·ml-1 BSA, 0.3 mM magnesium acetate, and 2 mM DTT at 37° C. for 15 min. To form RAD51 nucleoprotein filament, RAD51 (1 μM) was incubated with ^32P-labeled ssDNA (3 μM, nt) in buffer containing 25 mM Tris-Acetate, pH 7.5, 100 μg·ml-1 BSA, 1 mM calcium chloride, 1 mM ATP and 2 mM DTT for 15 min at 37° C. Then inhibitors were added to both reactions and incubation continued for 15 min at 37° C. D-Loop formation was initiated by addition of supercoiled pUC19 DNA (50 μM, nucleotides) and was carried out 15 min at 37° C. The reactions were stopped and deproteinized by the addition of 1.5% SDS and proteinase K (0.8 mg/ml) for 15 min at 37° C., mixed with a 0.10 volume of loading buffer (70% glycerol, 0.1% bromphenol blue), and analyzed by electrophoresis in 1% agarose gels in TAE buffer (40 mM Tris acetate, pH 8.3, and 1 mM EDTA) at 5 V/cm for 3 h. The gels were dried on DEAE-81 paper (Whatman) and the yield of D-loops quantified using a Storm 840 PhosphorImager and ImageQuant 5.2 (GE Healthcare). The D-loop yield was expressed as a percentage of plasmid DNA carrying D-loops relative to the total plasmid DNA.
IC50 values were calculated using GraphPad Prism V5.0 software. The data were obtained from three independent repeats of experiments.
The inhibitory effect of the 70 selected compounds were tested using the D-loop assay, in which RAD52 promotes pairing between 32P-labeled ssDNA and homologous supercoiled plasmid pUC19 DNA (FIG. 1D); the product of the reaction, D-loops, were analyzed by electrophoresis in 1% agarose gels. […] Then, the effects of each of the 17 compounds on RAD52-dependent D-loop formation were measured in a concentration dependent manner.

[2] = target: T1, RAD52; experiment: Fluorescence-quenching assay for RAD52 ssDNA annealing (HTS); format: biochemical
Description: Tailed dsDNA substrate was prepared by thermal annealing of ssDNA oligonucleotides 337-F and 1337-BHQ1 (SEQ ID NO: 2) containing Fluorescein and Black Hole Quencher 1 residues at the 5′ and 3′ end, respectively. […] The fluorescence intensity was measured in a 3-mm quartz cuvette (Starna Cells) using a FluoroMax-3 (HORIBA) fluorimeter with 492 nm excitation wavelength and 520 nm emission wavelength at 30° C. for at least 2000 s.
The HTS was performed using the 8 channel BioRAPTR 1536 (Beckman) for reagent dispensing. […] Wells containing no RAD52 enzyme were used to as positive control, and data were analyzed using Genedata.
A fluorescence-quenching assay was used to screen for inhibitors of RAD52 ssDNA annealing activity (FIGS. 1A-1E). […] Annealing promoted by RAD52 between ssDNA and tdsDNA led to displacement of the FLU-carrying DNA strand from the tdsDNA and in an increase in fluorescence due to secession of fluorescence quenching by the BHQ1 group (FIG. 1B).
The fluorescence-quenching assay was optimized for 1,536 well plates (Z′ Avg=0,64). […] The hits were further analyzed for a concentration dependence in inhibiting of RAD52 and by testing their DNA binding affinity using the acridine orange assay.

[3] = system: UWB1.289 (BRCA1-) and UWB1.289 (+BRCA1) cells; experiment: Luminescent cell viability assay, BRCA1-deficient versus proficient cells; format: cell-based, Human; conditions: 9 days exposure
Description: (§1) BxPC3 cells were kept in RPMI 1640 (ATCC) media supplemented with 10% FBS (Gibco). Capan-1/BxPC3 Capan-1 cells were kept in IMDM (ATCC) media containing 20% FBS (GIBCO). […] cells were kept in 48.5% RPMI1640 (ATCC), 48.5% MEGM (Clonetics/Lonza, MEGM kit, CC-3150) and 3% FBS (GIBCO) respectively. Cells in log-phase were harvested and 100 μl cell suspensions were replated in a 96-well plate with a final density of 4000 cells/well. After overnight growth, cells were treated with indicated concentrations of compounds. Media containing the invariant concentration of compounds were refreshed every 3 days until cells were finally lysed by 30 μl/well of Promega CellTiter-Glo reagents and read on a Promega GloMax 96 reader on day 10 (9 days exposure).
(§2) BxPC3 cells were kept in RPMI 1640 (ATCC) media supplemented with 10% FBS (Gibco); Capan-1 cells were kept in IMDM (ATCC) media containing 20% FBS (GIBCO); UWB1.298 and UWB1.298 (BRCA1+) cells were kept in 48.5% RPMI1640 (ATCC), 48.5% MEGM (Clonetics/Lonza, MEGM kit, CC-3150) and 3% FBS (GIBCO) respectively. […] Media containing the invariant concentration of compounds were refreshed every 3 days until cells were finally lysed by 30 μl/well of Promega CellTiter-Glo reagents and read on a Promega GloMax 96 reader on day 10 (9 days exposure). […]

[4] = system: Capan-1 (BRCA2-) and BxPC3 (BRCA2+) cells; experiment: Luminescent cell viability assay, BRCA2-deficient versus proficient cells; format: cell-based, Human; conditions: 9 days exposure
Description: as §1, §2

[5] = system: BRCA1/2-deficient cell lines; experiment: Growth of BRCA1/2-deficient cell lines (summary over tested lines); format: cell-based, Human
Description: as §1
as §1, with “(Gibco);” for “(Gibco). Capan-1/BxPC3”, “(GIBCO);” for “(GIBCO).”, “exposure). Promega CellTiter-Glo protocol is available on the web: www dot promega dot com/resources/protocols/technical-bulletins/0/celltiter-glo-luminescent-cell-viability-assay-protocol/” for “exposure).”
MDA-MB-436 cells were cultured in RPMI+10% FBS. BRCA-proficient and BRCA-deficient cells were plated on day 0 in triplicate at 5,000 cells/well. […] Cells were counted on day 4 on a hemocytometer, using Trypan Blue exclusion, and immediately were plated in a clonogenic assay at a density of 500 cells/well in a 6 well plate, in RPMI+10% FBS. […]

[6] = system: MDA-MB-436 (BRCA1-) and MDA-MB-436 (BRCA1+) cells; experiment: Clonogenic survival assay; format: cell-based, Human
Description: MDA-MB-436 cells were cultured in RPMI+10% FBS. BRCA-proficient and BRCA-deficient cells were plated on day 0 in triplicate at 5,000 cells/well. […] Cells were counted on day 4 on a hemocytometer, using Trypan Blue exclusion, and immediately were plated in a clonogenic assay at a density of 500 cells/well in a 6 well plate, in RPMI+10% FBS. After two weeks, the colonies were fixed/stained with 0.05% of 10 mg/ml ethidium bromide in 50% ethanol and visualized with Alphaimager gel imager (Alpha Innotech).
Likewise, the effects of RAD52 inhibitors on the growth of BRCA1-deficient (UWB1.289 BRCA1^−) and BRCA1-proficient (UWB1.289 BRCA^+) cells were tested. 7 out 14 tested RAD52 inhibitors preferentially suppress the growth of BRCA1-deficient cells. Importantly, these 7 compounds included the 5 compounds that inhibited the growth of BRCA2-deficient cells (FIGS. 3E-3H). The effects of the 14 RAD52 inhibitors were tested on the survival of another BRCA1-deficient cells, and MDA-MB-436 cells. […] BRCA1-deficiency in these cells is due to constitutive downregulation of this protein.

SMILES | IC50 [1] [µM] | IC50 [2] [µM] | effect on growth of BRCA1-deficient UWB1.289 cells versus UWB1.289 (+BRCA1) [3] | effect on growth of BRCA2-deficient Capan-1 cells versus BxPC3 [4] | preferential inhibition of BRCA1/2-deficient cell lines (summary) [5] | effect on survival of BRCA1-deficient MDA-MB-436 cells versus MDA-MB-436 (BRCA1+) [6]
CCCCN(CC)CCNC(=O)c1cc2c(-c3ccc(Cl)cc3)nn(C)c2s1 [D-I09, N-(2-(butyl(ethyl)amino)ethyl)-3-(4-chlorophenyl)-1-methyl-1H-thieno[2,3-c]pyrazole-5-carboxamide] | 10.6 ± 1.4 | 6.8 |  |  |  | 
CN1CCN(CCCNC(=O)c2cc3c(-c4ccc(Cl)cc4)nn(C)c3s2)CC1 [D-I07, 3-(4-chlorophenyl)-1-methyl-N-(3-(4-methylpiperazin-1-yl)propyl)-1H-thieno[2,3-c]pyrazole-5-carboxamide] | 2.7 ± 0.35 | 2 |  |  |  | 
COc1ccc(-c2nc(C(=O)NCCCN3CCOCC3)cc3c2[nH]c2ccccc23)cc1OC [D-A19, 1-(3,4-dimethoxyphenyl)-N-(3-morpholinopropyl)-9H-pyrido[3,4-b]indole-3-carboxamide] | 7.2 ± 0.28 | 4.8 |  |  |  | 
CCN1CCN(CCCNC(=S)Nc2ccc3nc(N(C)CCN)cc(C)c3c2)CC1 [D-E05, 1-(2-((2-aminoethyl)(methyl)amino)-4-methylquinolin-6-yl)-3-(3-(4-ethylpiperazin-1-yl)propyl)thiourea] | 11.3 ± 0.35 | 1.7 |  |  |  | 
CCN(CC)CCCN(Cc1cc2cc3c(cc2[nH]c1=O)OCO3)C(=S)NCCCN(C)C [D-A13, 1-(3-(diethylamino)propyl)-3-(3-(dimethylamino)propyl)-1-((6-oxo-5,6-dihydro-[1,3]dioxolo[4,5-g]quinolin-7-yl)methyl)thiourea] | 13.6 ± 0.64 | 5.2 |  |  |  | 
Cc1cc(N2CCN(C)CC2)nc2ccc(NC(=S)NCCCN3CCN(C)CC3)cc12 [D-I01, 1-(4-methyl-2-(4-methylpiperazin-1-yl)quinolin-6-yl)-3-(3-(4-methylpiperazin-1-yl)propyl)thiourea] | 15.4 ± 0.57 | 3.6 |  |  |  | 
Cn1nc(-c2ccc(Cl)cc2)c2cc(C(=O)NCCCN3CCCCCC3)sc21 [D-I11, N-(3-(azepan-1-yl)propyl)-3-(4-chlorophenyl)-1-methyl-1H-thieno[2,3-c]pyrazole-5-carboxamide] | 6.7 ± 0.78 | 4.1 |  |  |  | 
CCCN(CCC)CCCNC(=S)Nc1ccc2nc(N3CCN(C)CC3)cc(C)c2c1 [D-G11, 1-(3-(dipropylamino)propyl)-3-(4-methyl-2-(4-methylpiperazin-1-yl)quinolin-6-yl)thiourea] | 8.9 ± 1.6 | 6 | showed activity | showed activity |  | 
COc1ccc(OC)c(Nc2nc(NCCO)c3ccccc3n2)c1 [D-I05, 2-((2-((2,5-dimethoxyphenyl)amino)quinazolin-4-yl)amino)ethan-1-ol] | 8.8 ± 0.42 | 4.3 |  |  | preferentially inhibited at least two BRCA1/2-deficient cell lines | 
Cn1nc(-c2ccc(Cl)cc2)c2cc(C(=O)NCCCN3CCCC3)sc21 [D-I19, 3-(4-chlorophenyl)-1-methyl-N-(3-(pyrrolidin-1-yl)propyl)-1H-thieno[2,3-c]pyrazole-5-carboxamide] | 4.1 ± 0.14 | 3.5 |  |  |  | 
COc1ccccc1Nc1nc(NCCCO)c2ccccc2n1 [D-K17, 3-((2-((2-methoxyphenyl)amino)quina-zolin-4-yl)amino)propan-1-ol] | 4.8 ± 0.85 | 2.9 |  |  | preferentially inhibited at least two BRCA1/2-deficient cell lines | 
Cc1ccc(C(=O)c2oc3ccc(Cl)cc3c2NC(=O)CN2CCN(C)CC2)cc1 [D-C17, N-(5-chloro-2-(4-methylbenzoyl)benzofuran-3-yl)-2-(4-methylpiperazin-1-yl)acetamide] | 17.6 ± 0.78 | 6 |  |  |  | 
CCCCN(CC)CCCNC(=S)Nc1ccc2nc(N3CCN(C)CC3)cc(C)c2c1 [D-G09, 1-(3-(butyl(ethyl)amino)propyl)-3-(4-methyl-2-(4-methylpiperazin-1-yl)quinolin-6-yl)thiourea] | 14.8 ± 2.47 | 2 | showed an inhibitory effect | showed an inhibitory effect |  | showed an inhibitory effect
Cc1ccc(-c2nc(C(=O)NCCCN3CCOCC3)cc3c2[nH]c2ccccc23)cc1 [D-C19, N-(3-morpholinopropyl)-1-(p-tolyl)-9H-pyrid[3,4-b]indole-3-carboxamide] | 4.3 ± 0.35 | 2 |  |  |  | 
Cc1c(C(=O)Nc2ccc(S(=O)(=O)N(C)C3CCN(C)CC3)cc2)oc2c(Cl)cccc12 [D-A21, 7-chloro-3-methyl-N-(4-(N-methyl-N-(1-methylpiperidin-4-yl)sulfamoyl)phenyl) benzofuran-2-carboxamide] | 16.2 ± 0.42 | 9.8 |  |  |  | 
